What was measured:
[1] = tested on: Nicotiana benthamiana plants; test: BAP treatment after seedling transplantation: primary and secondary leaf biomass; format: in vivo
[2] = tested on: Nicotiana benthamiana plants; test: BAP treatment after seedling transplantation: HA production (hemagglutination assay) after agroinfiltration with construct 484; format: in vivo; conditions: 500 ppm after 7 and 12 days
[3] = 500 ppm 7 days after transplantation

c1ccc(CNc2ncnc3nc[nH]c23)cc1 [BAP, 6-benzylaminopurine]
effect on primary biomass ([1]; 100, 500 or 1,000 ppm, 7 and/or 12 days after transplantation (FIG. 9)): little effect
effect on secondary biomass production ([1]; 100 or 500 ppm, 7 and/or 12 days after transplantation (FIG. 9)): significant positive effect
increase for primary biomass compared to control [1, 3]: less than 10%
relative increase of secondary leaf biomass compared to control (non-treated) plants [1, 3]: about 37.5%
effect on secondary biomass production ([1]; 1,000 ppm treatment (FIG. 9)): no positive impact
secondary leaf biomass harvested ([1]; plants treated with 500 ppm 7 days after transplantation, control ca. 16 g): ca. 22 g
increase of total HA yield per plant ([2]; versus control (non-treated) plants): 45-50%
yield of HA per g fresh weight ([2]; control less than 200,000 units (FIG. 10)): more than 300,000 units per g fresh weight

Reference: patent US11959088B2, “Modifying protein production in plants” (MEDICAGO INC., priority 2014, dated 2024)
